pIC50: −log10 of the molar value. The source made the active and inactive calls. No cut-off for these calls is given here.
Tests used:
[1] = Displacement of [3H]alpha-BGT from nAChR in Apis mellifera (honeybee) head homogenates; assay type: tissue-based
[2] = Displacement of [3H]PCP from nAChR in Apis mellifera (honeybee0 head homogenates; assay type: tissue-based
Apis mellifera = assay: Displacement of [3H]PCP from nAChR in Apis mellifera (honeybee) head homogenates at 1000 uM; assay type: tissue-based
Musca domestica [3] = assay: Insecticidal activity against 3 to 5 day old female Musca domestica (house fly) assessed as induction of convulsions and paralysis applied through intrathoracic injection measured after 24 hr; assay type: functional, organism-based
Musca domestica [4] = assay: Insecticidal activity against 3 to 5 day old female Musca domestica (house fly) assessed as compound level causing insect mortality per female applied through intrathoracic injection measured after 24 hr; assay type: functional
Musca domestica [5] = assay: Insecticidal activity against 3 to 5 day old female Musca domestica (house fly) assessed as induction of anesthetic effect applied topically on notum measured after 24 hr; assay type: functional, organism-based
Musca domestica [6] = assay: Insecticidal activity against 3 to 5 day old female Musca domestica (house fly) assessed as induction of leg tremors at >2 ug/female fly applied topically on notum measured after 24 hr; assay type: functional, organism-based
Musca domestica [7] = assay: Insecticidal activity against 3 to 5 day old female Musca domestica (house fly) assessed as compound level causing insect mortality per female applied topically on notum measured after 24 hr; assay type: functional

SMILES | pIC50 [1] | pIC50 [2] | other results
O=[N+]([O-])/C=C1\NCCN1Cc1ccc(Cl)nc1 | 7.59 | 3.02 | 
COc1cc2c3cc1Oc1cc(ccc1O)C[C@@H]1c4c(cc(OC)c(O)c4Oc4ccc(cc4)C[C@@H]3N(C)CC2)CC[N+]1(C)C | 5.47 | 6.20 | 
CSC(C)N1CCN/C1=C\[N+](=O)[O-] (stereo unspecified) | 3.60 | 3.47 | 
O=[N+]([O-])C=C1NCCCS1 | 2.87 | 3.64 | 
C/C(=N\C#N)N(C)Cc1ccc(Cl)nc1 [ACETAMIPRID] | 5.05 | 3.56 | 
C[N+](C)(C)CCOC(N)=O [CARBACHOL] | 4.05 | < 3.00 | inhibition (Apis mellifera): 8.1%
CN(C)CCCN1c2ccccc2Sc2ccc(Cl)cc21 [CHLORPROMAZINE] | 3.82 | 5.24 | 
CCC[C@H]1CCCCN1 [CONIINE] | 3.78 | 5.25 | 
O=c1cccc2n1C[C@@H]1CNC[C@H]2C1 [CYTISINICLINE] | 6.57 | < 3.00 | inhibition (Apis mellifera): 12.6%
C[N+]1(C)CCN(c2ccccc2)CC1 [DIMETHYLPHENYLPIPERAZINIUM IODIDE] | 5.13 | 3.41 | 
c1cncc(C2CCCCN2)c1 (stereo not drawn) [DL-ANABASINE] | 5.70 | 5.30 | 
O=[N+]([O-])/N=C1\NCCN1Cc1ccc(Cl)nc1 [IMIDACLOPRID] | 5.71 | 3.41 | Activity (Musca domestica [3]): Active; LD50 (Musca domestica [4]): 0.553 µg
CNC1(c2ccccc2Cl)CCCCC1=O (stereo unspecified) [KETAMINE] | 3.63 | 4.08 | 
CN1[C@@H](CC(=O)c2ccccc2)CCC[C@H]1C[C@H](O)c1ccccc1 [LOBELINE] | 5.34 | 3.80 | 
CNC1(C)C2CCC(C2)C1(C)C (stereo unspecified) [MECAMYLAMINE] | 3.46 | 5.05 | 
CN(C)C1CSSC1 [NEREISTOXIN] | 3.64 | 4.51 | Activity (Musca domestica [5]): Active; Activity (Musca domestica [6]): Active; LD50 (Musca domestica [7]): 0.49 µg
CN1CCC[C@H]1c1cccnc1 [NICOTINE] | 5.81 | 5.94 | LD50 (Musca domestica [7]): 14.8 µg
CCN(Cc1ccc(Cl)nc1)/C(=C/[N+](=O)[O-])NC [NITENPYRAM] | 4.21 | 4.56 | 
c1ccc(C2(N3CCCCC3)CCCCC2)cc1 [PHENCYCLIDINE] | 5.59 | 7.54 | Activity (Musca domestica [5]): Active; LD50 (Musca domestica [7]): 18.4 µg
CN1CCC[C@@H]1c1cccnc1 [R-NICOTINE] | 4.66 | 4.46 | 
c1csc(C2(N3CCCCC3)CCCCC2)c1 [TENOCYCLIDINE] | 5.86 | 7.09 | Activity (Musca domestica [5]): Active; LD50 (Musca domestica [7]): 25 µg
O=C1N(Cc2ccccc2)C2C[S+]3CCCC3C2N1Cc1ccccc1 (stereo unspecified) [TRIMETHAPHAN CAMSYLATE] | 6.10 | 3.36 | 
